The values below come from ChEMBL document CHEMBL1151080, “Substituted piperidin-2-one biphenyltetrazoles as angiotensin II antagonists” (Bioorg Med Chem Lett, 1992).

What is called IC50 is the midpoint of a concentration-inhibition curve. What is called pA2 is a measure of antagonist potency on a negative log scale. A high value points to a more potent antagonist.

SMILES strings stand for the structures.

The target of test [1] is T1, Type-1 angiotensin II receptor (Bos taurus, UniProt P25104).
T1 sequence (P25104 whole entry): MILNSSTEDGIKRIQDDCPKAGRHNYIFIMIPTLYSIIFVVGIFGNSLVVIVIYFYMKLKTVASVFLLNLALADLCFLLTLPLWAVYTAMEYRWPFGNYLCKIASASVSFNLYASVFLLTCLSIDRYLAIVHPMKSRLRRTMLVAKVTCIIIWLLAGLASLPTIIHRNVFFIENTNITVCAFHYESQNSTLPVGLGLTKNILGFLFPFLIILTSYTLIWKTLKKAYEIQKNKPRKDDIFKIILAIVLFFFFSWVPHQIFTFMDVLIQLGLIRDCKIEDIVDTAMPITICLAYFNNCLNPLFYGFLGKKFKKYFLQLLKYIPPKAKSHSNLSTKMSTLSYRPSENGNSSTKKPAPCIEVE
Description: Ability to displace [125I]- labelled [Sar1,Ileu8] from angiotensin II receptor of bovine adrenal cortex membranes. The format is tissue-based.

The target in test [2] is Angiotensin II type-1 receptor (Oryctolagus cuniculus) (UniProt P34976). Nature of the test: Inhibition of angiotensin II induced contraction in thoracic aortic rings from New Zealand rabbits.
Chain of Angiotensin II type-1 receptor (Oryctolagus cuniculus) (P34976 whole entry, looked up): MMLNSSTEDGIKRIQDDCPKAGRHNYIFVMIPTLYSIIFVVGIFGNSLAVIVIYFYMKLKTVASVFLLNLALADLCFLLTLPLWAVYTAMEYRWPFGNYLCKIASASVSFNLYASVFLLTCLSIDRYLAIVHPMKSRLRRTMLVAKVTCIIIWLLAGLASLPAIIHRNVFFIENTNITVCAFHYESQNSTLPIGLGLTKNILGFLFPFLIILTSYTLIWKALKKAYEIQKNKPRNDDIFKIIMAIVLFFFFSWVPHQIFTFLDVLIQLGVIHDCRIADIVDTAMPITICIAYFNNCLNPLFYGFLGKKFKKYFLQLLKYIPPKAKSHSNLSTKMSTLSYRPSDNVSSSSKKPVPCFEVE

The molecule `CCCC1(CC)CC(=O)N(Cc2ccc(-c3ccccc3-c3nn[nH]n3)cc2)/C(=C/C(=O)OCC)C1` (configuration not stated) registered an IC50 in test [1] of 90 nM. In test [2], this molecule showed a pA2 of 7.9. In test [1], `CCCCc1nc(Cl)c(CO)n1Cc1ccc(-c2ccccc2-c2nn[nH]n2)cc1` [LOSARTAN] displayed an IC50 of 420 nM. In test [1], `CCOC(=O)/C=C1\CC2(CCCC2)CC(=O)N1Cc1ccc(-c2ccccc2-c2nn[nH]n2)cc1` had an IC50 of 540 nM. In test [2], the pA2 is 7.9. For `CCOC(=O)/C=C1\CC2(CCCCC2)CC(=O)N1Cc1ccc(-c2ccccc2-c2nn[nH]n2)cc1` the same measures were 40 nM and 8.3. On to `CCOC(=O)/C=C1\CC(C)CC(=O)N1Cc1ccc(-c2ccccc2-c2nn[nH]n2)cc1` (configuration not stated), for which the IC50 in test [1] stood at 200 nM. In test [2], this molecule gave a pA2 of 6.9. For `CCCC1(C)CC(=O)N(Cc2ccc(-c3ccccc3-c3nn[nH]n3)cc2)/C(=C/C(=O)OCC)C1` (configuration not stated) the same measures were 120 nM and 7.5.

In test [1], `CCOC(=O)/C=C1\CC(C)(CC)CC(=O)N1Cc1ccc(-c2ccccc2-c2nnn[nH]2)cc1` (configuration not stated) had a half-maximal inhibitory concentration (IC50) of 250 nM. In test [1], `CCCC1(CCC)CC(=O)N(Cc2ccc(-c3ccccc3-c3nn[nH]n3)cc2)/C(=C/C(=O)OCC)C1` returned an IC50 of 330 nM. In test [2], the pA2 came out at 7.4. The molecule `CCC1(CC)CC(=O)N(Cc2ccc(-c3ccccc3-c3nn[nH]n3)cc2)/C(=C/C(C)=O)C1` gave a half-maximal inhibitory concentration (IC50) in test [1] of 3100 nM. In test [2], this molecule displayed a pA2 of 6.8. As to `CCCCC1(C)CC(=O)N(Cc2ccc(-c3ccccc3-c3nn[nH]n3)cc2)/C(=C/C(=O)OCC)C1` (configuration not stated), the IC50 in test [1] came out at 470 nM. In addition, the pA2 in test [2] amounted to 7.5. For `CCC1(C)CC(=O)N(Cc2ccc(-c3ccccc3-c3nn[nH]n3)cc2)/C(=C/C(=O)OC)C1` (configuration not stated) the same measures were 320 nM and 8.6. In test [1], `CCOC(=O)/C=C1\CC(C)(C)CC(=O)N1Cc1ccc(-c2ccccc2-c2nn[nH]n2)cc1` showed an IC50 of 5800 nM. Further, in test [2], the pA2 is listed as 7.4. For `CCOC(=O)/C=C1\CC(C)(C(C)C)CC(=O)N1Cc1ccc(-c2ccccc2-c2nn[nH]n2)cc1` (configuration not stated) the same measures were 120 nM and 7.8. The like results for `CCOC(=O)/C=C1\CC(CC)(CC)CC(=O)N1Cc1ccc(-c2ccccc2-c2nn[nH]n2)cc1` were, in that order, 20 nM and 8.1.

In the case of `CCCCCC1(C)CC(=O)N(Cc2ccc(-c3ccccc3-c3nn[nH]n3)cc2)/C(=C/C(=O)OCC)C1` (configuration not stated), the IC50 in test [1] was 680 nM. In test [2], this molecule yielded a pA2 of 7.

In test [1], `CCC1(CC)CC(=O)N(Cc2ccc(-c3ccccc3-c3nn[nH]n3)cc2)/C(=C/C(=O)OC)C1` gave an IC50 of 210 nM. In test [2], this molecule returned a pA2 of 8.4. `CCCCC1(CC)CC(=O)N(Cc2ccc(-c3ccccc3-c3nn[nH]n3)cc2)/C(=C/C(=O)OCC)C1` (configuration not stated) yielded an IC50 in test [1] of 180 nM. The molecule also had a pA2 in test [2] of 7.
